This experiment addresses T1, cPLA2α (Homo sapiens, UniProt P47712).
T1 construct: gene PLA2G4A; recombinant, isolated from Sf9 insect cells
T1 sequence (P47712 1-749): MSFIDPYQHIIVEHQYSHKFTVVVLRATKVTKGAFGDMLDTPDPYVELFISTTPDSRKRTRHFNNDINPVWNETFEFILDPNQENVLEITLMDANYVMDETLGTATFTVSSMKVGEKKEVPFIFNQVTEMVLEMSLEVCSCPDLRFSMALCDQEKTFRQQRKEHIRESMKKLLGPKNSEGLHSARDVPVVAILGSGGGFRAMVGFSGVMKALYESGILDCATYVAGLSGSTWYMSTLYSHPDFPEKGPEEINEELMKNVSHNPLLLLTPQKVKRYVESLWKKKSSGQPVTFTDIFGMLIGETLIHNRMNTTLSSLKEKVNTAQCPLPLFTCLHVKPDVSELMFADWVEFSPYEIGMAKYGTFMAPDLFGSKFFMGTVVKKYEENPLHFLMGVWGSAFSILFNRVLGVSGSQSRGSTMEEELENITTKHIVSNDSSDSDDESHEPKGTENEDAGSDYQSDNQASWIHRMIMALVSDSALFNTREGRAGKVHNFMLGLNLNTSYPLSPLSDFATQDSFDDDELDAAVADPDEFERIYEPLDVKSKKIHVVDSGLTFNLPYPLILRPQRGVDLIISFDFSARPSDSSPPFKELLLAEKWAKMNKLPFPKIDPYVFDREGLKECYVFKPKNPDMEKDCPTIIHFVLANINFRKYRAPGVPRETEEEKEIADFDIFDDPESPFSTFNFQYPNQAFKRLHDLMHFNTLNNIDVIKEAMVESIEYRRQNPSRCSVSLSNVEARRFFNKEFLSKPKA
Put plainly: cPLA2α activity assay with PAPC/POG vesicles, arachidonic acid by LC-MS/MS. The format is biochemical.

Structures are written as SMILES.

As to `C[C@@H](C(=O)O)c1ccc(-c2ccccc2)c(F)c1` [R-flurbiprofen], the IC50 – broadly, the concentration that inhibits the measured activity by half – amounted to 202 µM.
